Source: patent US5877210A, “Phosphotyrosine phosphatase inhibitors or phosphotyrosine kinase activators for controlling cellular proliferation” (priority 1995, dated 1999)

How the values were obtained:
[1] = system: HL-60; assay: Clonogenic assay in methylcellulose; type: cell-based, human; conditions: for colonies formed: seven days
Experimental: (§1) The selective cytotoxicity of BMLOV was examined in clonogenic assays. Cells were grown in methylcellulose media and the number of colonies formed after seven days of treatment with various doses of the drug were determined. The clonogenic assays were performed with six replicates for each treatment as described [F. M. Uckun et al., J. Exp. Med. 163:347-368 (1986); F. M. Uckun & J. A. Ledbetter, Proc. Natl. Acad. Sci. USA 85:8603-8607 (1988)). The data is given plus/minus the standard error of the mean.
(§2) For assays of cellular proliferation, cells were grown five days in the presence of the indicated concentrations of BMLOV, pulsed 6 hr with [^3 H]-thymidine (New England Nuclear, Boston, Mass.), and counted in a liquid scintillation counter. Human peripheral blood lymphocytes (PBL) from normal volunteers were isolated from lymphocyte separation medium (Litton Bionetics, Kensington, Md.) by density gradient centrifugation. Monocytes were depleted from PBL by two rounds of plastic absorption for 30 minutes at 37° C. B cells were enriched for by negative selection using complement plus monoclonal antibodies to CD2, CD3, CD4, and CD8 for complement depletion. Clonogenic assays of colony formation in methylcellulose medium were performed as previously described (F. M. Uckun et al. (1992), supra).

[2] = system: Ramos; assay: Clonogenic assay in methylcellulose; type: cell-based, human; conditions: Ramos; for colonies formed: seven days
Experimental: as §1, §2

[3] = system: Raji; assay: Clonogenic assay in methylcellulose; type: cell-based, human; conditions: for colonies formed: seven days
Experimental: as §1, §2

[4] = system: THP-1; assay: Clonogenic assay in methylcellulose; type: cell-based, human; conditions: for colonies formed: seven days
Experimental: as §1, §2

[5] = system: normal tonsillar B cells; assay: Normal tonsillar B cell proliferation; type: cell-based
Text: BMLOV can inhibit normal tonsillar B cell proliferation driven by stimulation of CD40 via either anti-CD40 antibody or gp39 ligand plus either anti-CD20 antibody or phorbol 12-myristate 13-acetate (PMA). […] Variations between the individuals from which the tonsils were derived could account for the differences between these experiments.

[6] = system: antibody-producing B cells; assay: Class-switching: Ig production by anti-CD40 + IL-4 treated B cells; type: cell-based, human
Experimental: The effects of BMLOV were assayed on class-switching in antibody-producing B cells. Human B cells producing antibody were treated with anti-CD40 antibody plus IL-4, which increased production of IgE over 10-fold (Table 7). […] In contrast, the production of IgG1 and IgG4 was much less affected, particularly at a dose of 5.6 μM BMLOV. This selective effect is important because the IgG antibody production is an important response to infectious disease. It would be of value to suppress IgE production for the treatment of allergies while maintaining IgG production, particularly in conditions in which an allergy coexists with an infectious disease. A common example is the exacerbation of allergic rhinitis (hay fever) as the result of a respiratory infection.

[7] = system: pp60^c-src; assay: pp60c-src kinase activity in colon carcinoma cell lines; type: cell-based; conditions: two colon carcinoma cell lines expressing Src; dose-dependent
Text: Many colon carcinomas are known to express the Src oncogene product at high levels.

[8] = system: P388D; assay: [3H]thymidine incorporation assay; type: cell-based, murine; conditions: 5 days
Experimental: (§3) The cell lines A20, 70Z-3, L1210, and P388D were used. A20 is a B cell lymphoma cell line; 70Z/3 is a B cell leukemia cell line; L1210 is a T cell leukemia cell line; and P388D is a myeloid leukemia cell line. The cells were grown for 5 days in the presence of pV(phen) and pulsed with [^3 H]-thymidine on day 5. The extent of DNA synthesis was then determined by counting the radioactivity incorporated into the cells, as in Example 5, supra. […] The effects on L1210 cells and P388D cells are particularly noteworthy because these cell lines have been extensively used by the National Cancer Institute to identify anti-cancer drugs.

[9] = system: 70Z/3 B cell leukemia cell line; assay: [3H]thymidine incorporation assay; type: cell-based, murine; conditions: 702/3, 5 days
Experimental: as §3

[10] = system: L1210; assay: [3H]thymidine incorporation assay; type: cell-based, murine; conditions: 5 days
Experimental: as §3

[11] = Anti-CD40 + IL-4 + 0.002 μM BMLOV
[12] = Anti-CD40 + IL-4 + 0.008 μM BMLOV
[13] = Anti-CD40 + IL-4 + 0.02 μM BMLOV
[14] = Anti-CD40 + IL-4 + 0.07 μM BMLOV
[15] = Anti-CD40 + IL-4 + 0.2 μM BMLOV
[16] = Anti-CD40 + IL-4 + 0.6 μM BMLOV
[17] = Anti-CD40 + IL-4 + 1.9 μM BMLOV
[18] = Anti-CD40 + IL-4 + 5.6 μM BMLOV

Cc1occc(=O)c1[O-].Cc1occc(=O)c1[O-].[O]=[V+2] [BMLOV, Bis(maltolato)oxovanadium (IV)]
percentage of inhibition of clonogenic growth ([1]; 1 μM BMLOV): 99.4%
colonies formed ([1]; 1 μM BMLOV): 31 ± 8 colonies per 10^4 cells
percentage of inhibition of clonogenic growth ([1]; 5 μM BMLOV): 99.4%
colonies formed ([1]; 5 μM BMLOV): 31 ± 8 colonies per 10^4 cells
percentage of inhibition of clonogenic growth ([1]; 10 μM BMLOV): 99.7%
colonies formed ([1]; 10 μM BMLOV): 15 ± 4 colonies per 10^4 cells
percentage of inhibition of clonogenic growth ([2]; 1 μM BMLOV): 95.6%
colonies formed ([2]; 1 μM BMLOV): 179 ± 33 colonies per 10^4 cells
percentage of inhibition of clonogenic growth ([2]; 5 μM BMLOV): 99.8%
colonies formed ([2]; 5 μM BMLOV): 7 ± 2 colonies per 10^4 cells
percentage of inhibition of clonogenic growth ([2]; 10 μM BMLOV): greater than 99.9%
colonies formed ([2]; 10 μM BMLOV): 0 colonies per 10^4 cells
percentage of inhibition of clonogenic growth ([3]; 1 μM BMLOV): 60.3%
colonies formed ([3]; 1 μM BMLOV): 1291 ± 283 colonies per 10^4 cells
percentage of inhibition of clonogenic growth ([3]; 5 μM BMLOV): 99.9%
colonies formed ([3]; 5 μM BMLOV): 4 ± 0.6 colonies per 10^4 cells
colonies formed ([3]; 10 μM BMLOV): 3 ± 0.8 colonies per 10^4 cells
percentage of inhibition of clonogenic growth ([4]; 1 μM BMLOV): 75.0%
colonies formed ([4]; 1 μM BMLOV): 1613 ± 235 colonies per 10^4 cells
percentage of inhibition of clonogenic growth ([4]; 5 μM BMLOV): 98.0%
colonies formed ([4]; 5 μM BMLOV): 127 ± 35 colonies per 10^4 cells
percentage of inhibition of clonogenic growth ([4]; 10 μM BMLOV): 98%
colonies formed ([4]; 10 μM BMLOV): 127 ± 35 colonies per 10^4 cells
effect on proliferation ([5]; first experiment (FIG. 3), 0.1 to 10 μM BMLOV): little effect on proliferation
effect on proliferation ([5]; second experiment (FIG. 4), 5 μM BMLOV): substantial inhibition of proliferation
effect on proliferation ([5]; second experiment (FIG. 4), 50 μM BMLOV): completely blocked proliferation
increased production of IgE, in words ([6]; 5.6 or 17 μM BMLOV): markedly inhibited
[Ig] IgE [6, 11]: 3.9 ng/mL
[Ig] IgG1 [6, 11]: 450 ng/mL
[Ig] IgG4 [6, 11]: 1.7 ng/mL
[Ig] IgM [6, 11]: 20.4 ng/mL
[Ig] IgE [6, 12]: 2.6 ng/mL
[Ig] IgG1 [6, 12]: 450 ng/mL
[Ig] IgG4 [6, 12]: 1.1 ng/mL
[Ig] IgM [6, 12]: 20.4 ng/mL
[Ig] IgE [6, 13]: 4.5 ng/mL
[Ig] IgG1 [6, 13]: 390 ng/mL
[Ig] IgG4 [6, 13]: 1.3 ng/mL
[Ig] IgM [6, 13]: 19.2 ng/mL
[Ig] IgE [6, 14]: 5.1 ng/mL
[Ig] IgG1 [6, 14]: 450 ng/mL
[Ig] IgG4 [6, 14]: 2.7 ng/mL
[Ig] IgM [6, 14]: 12.0 ng/mL
[Ig] IgE [6, 15]: 7.5 ng/mL
[Ig] IgG1 [6, 15]: 495 ng/mL
[Ig] IgG4 [6, 15]: 1.2 ng/mL
[Ig] IgM [6, 15]: 13.8 ng/mL
[Ig] IgE [6, 16]: 5.7 ng/mL
[Ig] IgG1 [6, 16]: 480 ng/mL
[Ig] IgG4 [6, 16]: 1.3 ng/mL
[Ig] IgM [6, 16]: 17.4 ng/mL
[Ig] IgE [6, 17]: 3.0 ng/mL
[Ig] IgG1 [6, 17]: 450 ng/mL
[Ig] IgG4 [6, 17]: 2.7 ng/mL
[Ig] IgM [6, 17]: 15.6 ng/mL
[Ig] IgE [6, 18]: 1.2 ng/mL
[Ig] IgG1 [6, 18]: 480 ng/mL
[Ig] IgG4 [6, 18]: 1.8 ng/mL
[Ig] IgM [6, 18]: 18.6 ng/mL
[Ig] IgE ([6]; Anti-CD40 + IL-4 + 17 μM BMLOV): 0.8 ng/mL
[Ig] IgG1 ([6]; Anti-CD40 + IL-4 + 17 μM BMLOV): 450 ng/mL
[Ig] IgG4 ([6]; Anti-CD40 + IL-4 + 17 μM BMLOV): 0.8 ng/mL
[Ig] IgM ([6]; Anti-CD40 + IL-4 + 17 μM BMLOV): 18.0 ng/mL
[Ig] IgE ([6]; Anti-CD40 + IL-4 + 50 μM BMLOV): 0.2 ng/mL
[Ig] IgG1 ([6]; Anti-CD40 + IL-4 + 50 μM BMLOV): 60 ng/mL
[Ig] IgG4 ([6]; Anti-CD40 + IL-4 + 50 μM BMLOV): 0.5 ng/mL
[Ig] IgM ([6]; Anti-CD40 + IL-4 + 50 μM BMLOV): 5.1 ng/mL
pp60c-src activity [7]: strongly inhibited

[Na+].[O]=[V-]12([O][O]1)[O][O]2.c1cnc2c(c1)ccc1cccnc12 [pV(phen), sodium (1,10-phenanthroline) oxodiperoxovanadium (V)]
[3H]-thymidine radioactivity incorporated ([8]; 5 μM pV(phen)): 2513 ± 1424
[3H]-thymidine radioactivity incorporated ([8]; 10 μM pV(phen)): 362 ± 60
[3H]-thymidine radioactivity incorporated ([9]; 5 μM pV(phen)): 53 ± 27
[3H]-thymidine radioactivity incorporated ([9]; 10 μM pV(phen)): 49 ± 34
[3H]-thymidine radioactivity incorporated ([10]; 5 μM pV(phen)): 244 ± 155
[3H]-thymidine radioactivity incorporated ([10]; 10 μM pV(phen)): 464 ± 116
